From BindingDB's records for doi:10.1021/jm900078f (Metabasis Therapeutics, 2009)

Target: T1, Fructose-1,6-bisphosphatase 1 (Homo sapiens, UniProt P09467)
T1 sequence (P09467 whole entry): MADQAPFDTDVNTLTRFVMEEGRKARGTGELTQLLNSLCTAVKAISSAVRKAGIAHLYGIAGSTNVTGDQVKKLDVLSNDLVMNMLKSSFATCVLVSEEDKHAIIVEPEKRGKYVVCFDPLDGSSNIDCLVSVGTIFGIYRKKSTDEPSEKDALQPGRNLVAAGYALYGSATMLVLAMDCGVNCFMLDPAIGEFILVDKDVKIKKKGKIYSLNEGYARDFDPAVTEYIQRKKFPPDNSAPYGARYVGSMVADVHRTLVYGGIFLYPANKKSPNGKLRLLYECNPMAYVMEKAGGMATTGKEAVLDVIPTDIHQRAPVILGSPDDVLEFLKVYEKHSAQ
Assay: Inhibition of human liver FBPase expressed in Escherichia coli by spectrophotometry

Nc1ncnc2c1nc(-c1ccc(P(=O)(O)O)o1)n2CCC1CCCCC1 [5-(6-amino-9-(2-cyclohexylethyl)-9H-purin-8-yl)furan-2-ylphosphonic acid]
IC50: 1.4 µM
